{"source": "patent US4058659A", "about": "“6,8-Disubstituted purine derivatives of 9-β-D-ribofuranosyl 3',5'-cyclic phosphate” (ICN Pharmaceuticals, Inc., priority 1975, dated 1977)", "key": {"[1]": {"system": "intact anesthetized dog (myocardial contractility)", "experiment": "In vivo positive inotropic effect (dP/dT max) in the intact anesthetized dog", "conditions": "i.v. infusion 1 mg/kg per min", "description": "(§1) The measurement dP/dT max was used as the index of change in myocardial contractility (inotropism). Compound 12 was given as an intravenous infusion at the rate of 1 mg/kg per min. in total single doses of 1.0 to 10.0 mg/kg and the values are expresses as percent of control.\nIn Vivo Positive Inotropic Effect\nMeasurement of myocardial contractility (inotropism)\nusing dP/dT max (% of control) as index of measurement of inotropic"}, "[2]": {"system": "renal and mesenteric blood flow", "experiment": "Renal and mesenteric blood flow in anesthetized dogs", "assay_type": "in vivo, dog"}, "[3]": {"system": "isolated cat papillary muscle", "experiment": "Positive inotropic effect: % change in contractile force in isolated cat papillary muscle"}, "unanesthetized dogs": {"system": "unanesthetized dogs", "experiment": "Inotropic effect in unanesthetized dogs", "assay_type": "in vivo, dog", "conditions": "compared with anesthetized dogs", "description": "as §1"}, "[4]": {"experiment": "Antihypertensive properties in in vivo animal testing"}, "[5]": {"experiment": "Anti-inflammatory activity in in vivo animal testing"}}, "note": "Counter-ions that a name gives are not always drawn."}
{"molecule": "8-(Benzylthio)-6-(diethylamino)-9-β-D-ribofuranosylpurine 3',5'-CyclicPhosphate [Compound 12]", "values": [{"measurement": "dP/dT max (% of control)", "setting": "[1]; 1.0 mg/kg, 1 minute after infusion", "value": 120, "unit": "%"}, {"measurement": "dP/dT max (% of control)", "setting": "[1]; 1.0 mg/kg, 3 minutes after infusion", "value": 120, "unit": "%"}, {"measurement": "dP/dT max (% of control)", "setting": "[1]; 1.0 mg/kg, 5 minutes after infusion", "value": 130, "unit": "%"}, {"measurement": "dP/dT max (% of control)", "setting": "[1]; 1.0 mg/kg, 15 minutes after infusion", "value": 110, "unit": "%"}, {"measurement": "dP/dT max (% of control)", "setting": "[1]; 3.1 mg/kg, 1 minute after infusion", "value": 200, "unit": "%"}, {"measurement": "dP/dT max (% of control)", "setting": "[1]; 3.1 mg/kg, 3 minutes after infusion", "value": 180, "unit": "%"}, {"measurement": "dP/dT max (% of control)", "setting": "[1]; 3.1 mg/kg, 5 minutes after infusion", "value": 160, "unit": "%"}, {"measurement": "dP/dT max (% of control)", "setting": "[1]; 3.1 mg/kg, 15 minutes after infusion", "value": 140, "unit": "%"}, {"measurement": "dP/dT max (% of control)", "setting": "[1]; 3.1 mg/kg, 30 minutes after infusion", "value": 105, "unit": "%"}, {"measurement": "dP/dT max (% of control)", "setting": "[1]; 10.0 mg/kg, 1 minute after infusion", "value": 210, "unit": "%"}, {"measurement": "dP/dT max (% of control)", "setting": "[1]; 10.0 mg/kg, 3 minutes after infusion", "value": 200, "unit": "%"}, {"measurement": "dP/dT max (% of control)", "setting": "[1]; 10.0 mg/kg, 5 minutes after infusion", "value": 180, "unit": "%"}, {"measurement": "dP/dT max (% of control)", "setting": "[1]; 10.0 mg/kg, 15 minutes after infusion", "value": 140, "unit": "%"}, {"measurement": "dP/dT max (% of control)", "setting": "[1]; 10.0 mg/kg, 30 minutes after infusion", "value": 100, "unit": "%"}, {"measurement": "mesenteric blood flow", "setting": "[2]", "value": "increase in renal and mesenteric blood flow"}, {"measurement": "renal blood flow", "setting": "[2]", "value": "increase in renal and mesenteric blood flow"}, {"measurement": "% change in Contractile Force (CF)", "setting": "[3]; 1.0 μg/ml", "value": 3.8, "unit": "%"}, {"measurement": "% change in Contractile Force (CF)", "setting": "[3]; 3.1 μg/ml", "value": 8.0, "unit": "%"}, {"measurement": "% change in Contractile Force (CF)", "setting": "[3]; 10.0 μg/ml", "value": 12.7, "unit": "%"}, {"measurement": "% change in Contractile Force (CF)", "setting": "[3]; 31.0 μg/ml", "value": 27.0, "unit": "%"}, {"measurement": "% change in Contractile Force (CF)", "setting": "[3]; 100 μg/ml", "value": 46.0, "unit": "%"}, {"measurement": "% change in Contractile Force (CF)", "setting": "[3]; 310 μg/ml", "value": 56.0, "unit": "%"}, {"measurement": "positive inotropic effect", "setting": "[3]; statement in words, isolated cat papillary muscle", "value": "exhibit positive inotropic effect"}, {"measurement": "inotropic effect in unanesthetized dogs", "setting": "unanesthetized dogs", "value": "same inotropic effect"}]}
{"molecule": "CC(=O)O[C@@H]1[C@@H]2OP(=O)(O)OC[C@H]2O[C@H]1n1c(Sc2ccc(Cl)cc2)nc2c(Cl)ncnc21", "note": "[Compound 33, 2'-O-Acetyl-6-chloro-8-(p-chlorophenylthio)-9-β-D-ribofuranosylpurine 3',5'-Cyclic Phosphate Sodium Salt]", "values": [{"measurement": "antihypertensive properties", "setting": "[4]", "value": "displayed antihypertensive properties"}, {"measurement": "anti-inflammatory activity", "setting": "[5]", "value": "displayed anti-inflammatory activity"}]}
